Measurements as given in PMC5215601, “Functional Characterization of the N-Terminal C2 Domain from Arabidopsis thaliana Phospholipase Dα and Dβ” (BioMed Research International, 2016).

Columns and labels:
[1] = molecular target: T1, C2β domain of AtPLDβ (mC2β) (Arabidopsis thaliana, UniProt P93733, F299V); assay: protein to dansyl-PE liposome FRET; assay type: binding; conditions: 20 μM liposomes with 5% dansyl-PE, 1 μM domain, 50 mM HEPES pH 8, 30 °C; 0, 50 or 200 μM Ca2+
T1 construct: gene PLDBETA1; C2 domain cut to match mature-like C2α; forward primer encodes MVGRLPG (second codon F changed to V); C-terminal 6xHis kept
T1 sequence (P93733 298-418 F299V): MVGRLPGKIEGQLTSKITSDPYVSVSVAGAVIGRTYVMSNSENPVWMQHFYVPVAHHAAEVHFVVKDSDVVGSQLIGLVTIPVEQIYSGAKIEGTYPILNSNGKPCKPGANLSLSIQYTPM

[2] = molecular target: T2, C2α domain of AtPLDα (mC2α) (Arabidopsis thaliana, UniProt Q38882); assay: protein to dansyl-PE liposome FRET; lipid dot-blot; assay type: binding; conditions: 20 μM liposomes with 5% dansyl-PE, 1 μM domain, 50 mM HEPES pH 8, 30 °C; 0, 50 or 200 μM Ca2+
T2 construct: gene PLDALPHA1; mature-like C2 domain lacking the N-terminal residues; forward primer encodes (M)ANVEET, extra Met added; last encoded residues before tag ...LQYFHVE by reverse primer; C-terminal 6xHis kept
T2 sequence (Q38882 35-152): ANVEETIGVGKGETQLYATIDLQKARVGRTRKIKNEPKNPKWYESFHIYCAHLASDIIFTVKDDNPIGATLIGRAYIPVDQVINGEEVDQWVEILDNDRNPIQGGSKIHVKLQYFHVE

AtPLDα-WT = molecular target: T3, AtPLDα-WT (Arabidopsis thaliana, UniProt Q38882); assay: choline oxidase / peroxidase coupled colorimetric assay, […] nm; assay type: biochemical; conditions: crude P. pastoris extract; 266 μM POPC in SDS / Triton X-100 mixed micelles, 20 mM CaCl2, 50 mM Tris-HCl pH 8.0
T3 construct: gene PLDALPHA1; full-length cDNA, untagged, Pichia pastoris X-33; possibly N-glycosylated
T3 sequence (Q38882 36-810): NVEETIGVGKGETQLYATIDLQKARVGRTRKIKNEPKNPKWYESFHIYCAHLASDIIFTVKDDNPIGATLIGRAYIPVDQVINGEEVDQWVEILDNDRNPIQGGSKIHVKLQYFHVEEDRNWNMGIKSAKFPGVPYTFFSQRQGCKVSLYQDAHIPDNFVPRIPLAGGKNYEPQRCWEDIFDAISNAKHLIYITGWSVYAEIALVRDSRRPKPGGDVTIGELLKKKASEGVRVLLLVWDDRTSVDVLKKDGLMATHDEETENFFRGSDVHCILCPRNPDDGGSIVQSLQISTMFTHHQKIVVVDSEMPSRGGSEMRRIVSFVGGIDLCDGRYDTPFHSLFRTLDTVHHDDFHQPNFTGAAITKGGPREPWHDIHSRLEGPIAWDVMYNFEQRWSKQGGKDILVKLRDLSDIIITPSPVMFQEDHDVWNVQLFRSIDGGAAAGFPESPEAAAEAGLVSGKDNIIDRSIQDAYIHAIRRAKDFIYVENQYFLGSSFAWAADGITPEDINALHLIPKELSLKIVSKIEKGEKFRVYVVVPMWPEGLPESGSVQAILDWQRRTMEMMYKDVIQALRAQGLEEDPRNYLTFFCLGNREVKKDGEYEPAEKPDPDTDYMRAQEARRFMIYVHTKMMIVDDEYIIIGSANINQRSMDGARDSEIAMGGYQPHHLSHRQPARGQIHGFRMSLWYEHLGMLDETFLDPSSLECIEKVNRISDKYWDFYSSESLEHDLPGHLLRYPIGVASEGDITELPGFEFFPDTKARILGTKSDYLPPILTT

[3] = molecular target: T1, C2β domain of AtPLDβ (mC2β); assay: protein to dansyl-PE liposome FRET; lipid dot-blot; assay type: binding; conditions: 20 μM liposomes with 5% dansyl-PE, 1 μM domain, 50 mM HEPES pH 8, 30 °C; 0, 50 or 200 μM Ca2+

| Compound | relative FRET [1] | relative FRET [2] | PLD activity (AtPLDα-WT) | relative FRET [3] |
| --- | --- | --- | --- | --- |
| CCCCCCCC/C=C\CCCCCCCC(=O)O[C@H](COC(=O)CCCCCCCCCCCCCCC)COP(=O)(O)OCC(O)CO (mixture of isomers) [PG, 1-Palmitoyl-2-oleoyl-sn-glycero-3-phospho-(1′-rac-glycerol)] | both C2 domains showed a strong binding to PG vesicles | both C2 domains showed a strong binding to PG vesicles |  |  |
| CCCCCCCC/C=C\CCCCCCCC(=O)O[C@H](COC(=O)CCCCCCCCCCCCCCC)COP(=O)([O-])OCC[N+](C)(C)C [PC, 1-Palmitoyl-2-oleoyl-sn-glycero-3-phosphocholine] |  |  | crude extracts of P. pastoris transformed with the AtPLDα-WT exhibited a higher PLD activity |  |
| CCCCCCCC/C=C\CCCCCCCC(=O)O[C@H](COC(=O)CCCCCCCCCCCCCCC)COP(=O)(O)O [PA, 1-palmitoyl-2-oleoyl-sn-glycero-3-phosphate] |  | both C2 domains were found to bind anionic phospholipids (PA and PS) |  | both C2 domains were found to bind anionic phospholipids (PA and PS) |
